Results reported in PMC5516028, “Molecular tools for GABAA receptors: High affinity ligands for β1-containing subtypes” (Scientific Reports, 2017).
Values joined by “and” are separate entries in the source; they are usually repeats but may differ in a detail not shown here. Identical values can stand only once.

Experiments:
Assay type in all cases: cell-based
α1β1 GABAA receptors = target: T1, α1β1 GABAA receptors (Rattus norvegicus, UniProt P15431+P62813); test: Two electrode voltage clamp in Xenopus laevis oocytes, α1β1; settings: α1β1
T1 construct: expressed in transfected cells; host or cells: Xenopus laevis oocytes, mRNA injected
T1 sequence (P62813 28-455): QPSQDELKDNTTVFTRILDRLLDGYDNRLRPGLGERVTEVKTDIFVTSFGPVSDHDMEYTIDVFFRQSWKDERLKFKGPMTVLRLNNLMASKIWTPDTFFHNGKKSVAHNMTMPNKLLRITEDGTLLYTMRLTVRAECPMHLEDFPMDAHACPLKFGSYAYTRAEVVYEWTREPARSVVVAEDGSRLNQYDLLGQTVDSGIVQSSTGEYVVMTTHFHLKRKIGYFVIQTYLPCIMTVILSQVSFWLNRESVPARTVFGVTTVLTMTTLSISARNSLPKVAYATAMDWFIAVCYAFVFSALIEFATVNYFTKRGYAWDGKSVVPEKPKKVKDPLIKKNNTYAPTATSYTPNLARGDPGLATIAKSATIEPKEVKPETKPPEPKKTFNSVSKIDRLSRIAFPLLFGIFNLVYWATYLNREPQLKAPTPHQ
T1 sequence (P15431 26-474): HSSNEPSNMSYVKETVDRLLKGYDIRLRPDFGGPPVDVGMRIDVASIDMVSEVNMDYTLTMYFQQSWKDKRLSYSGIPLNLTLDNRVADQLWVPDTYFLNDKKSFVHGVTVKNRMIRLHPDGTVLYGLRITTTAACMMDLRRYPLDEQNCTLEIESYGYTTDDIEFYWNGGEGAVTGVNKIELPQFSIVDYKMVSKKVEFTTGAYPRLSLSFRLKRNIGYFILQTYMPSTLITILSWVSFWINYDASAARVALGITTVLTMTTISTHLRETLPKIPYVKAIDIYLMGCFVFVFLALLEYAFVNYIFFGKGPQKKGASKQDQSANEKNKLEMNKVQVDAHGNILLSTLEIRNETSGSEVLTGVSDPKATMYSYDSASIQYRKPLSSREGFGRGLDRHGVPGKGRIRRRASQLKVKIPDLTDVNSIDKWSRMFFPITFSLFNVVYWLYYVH
Text: (§1) cDNA’s of rat GABAA receptor subunits α1, α4, β1, β2, β3 and γ2S were cloned as described. cDNAs of the rat subunits α2, α3 and α5 were gifts from P. Malherbe, that of α6 and γ1 were gifts of P. Seeburg and that of δ was a gift of C. Czajkowski. The mutants were constructed using the Q5 Site-Directed Mutagenesis Kit (New England Biolabs) following manufacturer’s instruction. We used the wild-type rat β3-pCI vector as template and the primers […] and […] resulting in a substitution of amino acid N41 (AAC) to R (AGG). We used the wild-type rat β1-pCI vector as template and the primers […] and […] resulting in a substitution of amino acid R41 (CGG) to N (AAC). The mutated subunits were confirmed by sequencing.
(§2) In vitro transcription of mRNA was based on the cDNA expression vectors encoding for rat GABAA receptor subunits α1–6, β1-3, γ1,2, δ and the two β mutants (β1R41N and β3N41R)[40]. After linearizing the cDNA vectors with appropriate restriction endonucleases, the cDNA was purified and concentrated with the DNA Clean and Contentrator ^TM Kit (Zymoresearch, Catalog No. D4005). Capped transcripts of the purified cDNA were produced using the mMESSAGE mMACHINE® T7 transcription kit (Ambion, TX, USA) and polyadenylated using the Ambion PolyA tailing kit (Ambion). After transcription and polyadenylation the RNA was purified with the MEGAclear ^TM Kit (Ambion, Catalog No. AM1908). The final RNA concentration was measured on NanoDrop® ND-1000 and finally diluted and stored in diethylpyrocarbonate-treated water at −80 °C. For the microinjection, the RNA of αβ receptor combinations was mixed at 1:1 ratio (which leads to αβ receptors that consist of predominantly 3 beta and 2 alpha subunits[27]), for αkβlγm (k = 1–3, l = 1, 3, m = 1, 2) receptors at 1:1:5 ratio, for αkβ3γ2 (k = 4–6) and αkβlδ (k = 1, 4 and 6, l = 1, 3) receptor combinations at 3:1:5 ratio.
(§3) Mature female Xenopus laevis (Nasco, WI) were anesthetized in a bath of ice-cold 0.17% Tricain (Ethyl-m-aminobenzoate, Sigma, MO) before decapitation in full accordance with all rules of the Austrian animal protection law (see http://www.ris.bka.gv.at/Dokumente/BgblAuth/BGBLA_2012_I_114/BGBLA_2012_I_114.pdf) and the Austrian animal experiment by-laws (see https://www.ris.bka.gv.at/Dokumente/BgblAuth/BGBLA_2012_II_522/BGBLA_2012_II_522.pdf) which implement the European Directive 2010/63/EU (see http://eur-lex.europa.eu/LexUriServ/LexUriServ.do?uri=OJ:L:2010:276:0033:0079:en:PDF) into the Austrian law (all information accessed on July 27, 2016). The frog’s ovaries were transferred to ND96 medium (96 mM NaCl, 2 mM KCl, 1 mM MgCl2, 5 mM HEPES; pH 7.5). Stage 5–6 oocytes with the follicle cell layer around them were roughly dissected with forceps into packages of 10–15 cells and washed in Ca^2+-free ND96 medium. Cells were then digested with collagenase (type IA, Sigma, NO, 1 mg/mL ND96) at 18 °C shaking at 30 rpm for 30–60 minutes and gently defolliculated with the aid of a glass pipette with appropriate tip diameter and a platinum loop. Defolliculated cells were stored at 18 °C for at least 6 hours in ND96 solution containing penicillin G (10000 IU/100 mL) and streptomycin (10 mg/100 mL) in order to preselect and exclude damaged cells from further treatment. Healthy defolliculated oocytes were injected with an aqueous solution of mRNA. A total of 4.5 ng of mRNA per oocyte was injected with a Nanoject II (Drummond). After injection of mRNA, oocytes were incubated at 18 °C (ND96 + antibiotic) for 2–3 days for αβ receptors and for 3–4 days for αβγ or αβδ receptors before recording. When cells were measured at later time points, oocytes were stored at +4 °C instead of 18 °C.
(§4) For electrophysiological recordings, oocytes were placed on a nylon-grid in a bath of Ca^2+-containing NDE solution medium [96 mM NaCl, 5 mM HEPES-NaOH (pH 7.5), 2 mM KCl, 1 mM MgCl2, 1.8 mM CaCl2].

α1β1R41N GABAA receptors = target: T2, α1β1R41N GABAA receptors (Rattus norvegicus, UniProt P15431+P62813, R66N); test: Two electrode voltage clamp in Xenopus laevis oocytes, mutant α1β1R41N
T2 construct: expressed in transfected cells; host or cells: Xenopus laevis oocytes, mRNA injected
T2 sequence (P62813 28-455): as the sequence (P62813 28-455) above
T2 sequence (P15431 26-474 R66N): as the sequence (P15431 26-474) above, with R41N counted along it
Text: as §1, §2, §3, §4

α1β2 GABAA receptors = target: T3, α1β2 GABAA receptors (Rattus norvegicus, UniProt P62813+P63138); test: Two electrode voltage clamp in Xenopus laevis oocytes, α1β2
T3 construct: expressed in transfected cells; host or cells: Xenopus laevis oocytes, mRNA injected
T3 sequence (P62813 28-455): as the sequence (P62813 28-455) above
T3 sequence (P63138 25-474 limits assumed): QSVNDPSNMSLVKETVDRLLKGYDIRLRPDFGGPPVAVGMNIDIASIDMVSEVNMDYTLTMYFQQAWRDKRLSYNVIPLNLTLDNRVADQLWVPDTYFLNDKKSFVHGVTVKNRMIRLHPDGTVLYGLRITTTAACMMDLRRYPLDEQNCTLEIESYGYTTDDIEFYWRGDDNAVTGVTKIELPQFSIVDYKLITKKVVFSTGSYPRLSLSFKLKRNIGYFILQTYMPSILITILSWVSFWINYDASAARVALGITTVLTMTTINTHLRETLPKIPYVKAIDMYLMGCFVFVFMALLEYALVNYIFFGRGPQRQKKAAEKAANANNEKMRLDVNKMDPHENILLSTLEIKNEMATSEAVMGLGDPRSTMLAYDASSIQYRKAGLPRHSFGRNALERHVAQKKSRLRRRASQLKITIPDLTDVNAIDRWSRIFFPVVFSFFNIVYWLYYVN
Text: as §1, §2, §3, §4

α1β3 GABAA receptors = target: T4, α1β3 GABAA receptors (Rattus norvegicus, UniProt P62813+P63079); test: Two electrode voltage clamp in Xenopus laevis oocytes, α1β3
T4 construct: expressed in transfected cells; host or cells: Xenopus laevis oocytes, mRNA injected
T4 sequence (P62813 28-455): as the sequence (P62813 28-455) above
T4 sequence (P63079 26-473): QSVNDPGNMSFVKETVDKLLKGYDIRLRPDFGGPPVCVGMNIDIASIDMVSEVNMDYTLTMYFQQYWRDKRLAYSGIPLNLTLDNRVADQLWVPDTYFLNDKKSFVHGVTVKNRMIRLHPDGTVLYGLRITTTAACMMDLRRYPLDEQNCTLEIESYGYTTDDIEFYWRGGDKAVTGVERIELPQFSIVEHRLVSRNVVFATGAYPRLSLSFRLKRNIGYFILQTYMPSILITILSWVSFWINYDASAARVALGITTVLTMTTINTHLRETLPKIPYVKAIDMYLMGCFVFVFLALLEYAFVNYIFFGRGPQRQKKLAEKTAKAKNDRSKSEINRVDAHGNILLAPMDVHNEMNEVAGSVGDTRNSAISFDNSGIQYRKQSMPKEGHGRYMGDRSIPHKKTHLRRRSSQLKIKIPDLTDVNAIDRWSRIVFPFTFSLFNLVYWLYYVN
Text: as §1, §2, §3, §4

α1β3N41R GABAA receptors = target: T5, α1β3N41R GABAA receptors (Rattus norvegicus, UniProt P62813+P63079, N66R); test: Two electrode voltage clamp in Xenopus laevis oocytes, mutant α1β3N41R
T5 construct: expressed in transfected cells; host or cells: Xenopus laevis oocytes, mRNA injected
T5 sequence (P62813 28-455): as the sequence (P62813 28-455) above
T5 sequence (P63079 26-473 N66R): as the sequence (P63079 26-473) above, with N41R counted along it
Text: as §1, §2, §3, §4

Structure (SMILES): COc1ccc2[nH]cc3c(=O)n(-c4ccc(C)cc4)nc-3c2c1 [Compound 5, 8-Methoxy-2-(4-methylphenyl)-2,5-dihydro-3H-pyrazolo[4,3-c]quinolin-3-one]
- activity at 0.01 µM (α1β1 GABAA receptors; read-out: efficacy, % of control current (GABA EC3-5 = 100%), 10 nM): 123%
- activity at 10 µM (α1β1 GABAA receptors; read-out: efficacy, % of control current (GABA EC3-5 = 100%), 10 µM): 732 ± 141%
- activity at 30 µM (α1β1 GABAA receptors; read-out: efficacy, % of control current (GABA EC3-5 = 100%), 30 µM): 637 ± 114%
- Hill slope (nH) (α1β1 GABAA receptors): 1.0± 0.5
- EC50 (α1β1 GABAA receptors; co-applied with GABA EC3-5, read-out: EC50): 710 nM
- current as % of control at 0.1 µM (α1β1R41N GABAA receptors; 100nM, read-out: % of control current at EC3-5): 95 ± 20%
- current as % of control at 0.3 µM (α1β1R41N GABAA receptors; 300nM, read-out: % of control current at EC3-5): 85 ± 25%
- current as % of control at 1 µM (α1β1R41N GABAA receptors; 1μM, read-out: % of control current at EC3-5): 100 ± 30%
- current as % of control at 3 µM (α1β1R41N GABAA receptors; 3µM, read-out: % of control current at EC3-5): 120 ± 30%
- current as % of control at 10 µM (α1β1R41N GABAA receptors; 10μM, read-out: % of control current at EC3-5): 155 ± 40%
- current as % of control at 30 µM (α1β1R41N GABAA receptors; 30μM, read-out: % of control current at EC3-5): 160 ± 40%
- EC50 (α1β2 GABAA receptors): 3740 nM
- activity at 0.003 µM (α1β2 GABAA receptors; read-out: efficacy, % of control current (GABA EC3-5 = 100%), α1β2, 3 nM): 100%
- activity at 1 µM (α1β2 GABAA receptors; read-out: efficacy, % of control current (GABA EC3-5 = 100%), α1β2, 1 µM): 179 ± 8.3%
- activity at 30 µM (α1β2 GABAA receptors; read-out: efficacy, % of control current (GABA EC3-5 = 100%), α1β2, 30 µM): 651 ± 148%
- Hill slope (nH) (α1β2 GABAA receptors; α1β2): 2.8±1.7
- activity at 0.01 µM (α1β3 GABAA receptors; read-out: efficacy, % of control current (GABA EC3-5 = 100%), α1β3, 10 nM): 111 ± 5.7%
- activity at 0.03 µM (α1β3 GABAA receptors; read-out: efficacy, % of control current (GABA EC3-5 = 100%), α1β3, 30 nM): 115 ± 8.1%
- activity at 0.1 µM (α1β3 GABAA receptors; read-out: efficacy, % of control current (GABA EC3-5 = 100%), α1β3, 100 nM): 126 ± 11.5%
- activity at 30 µM (α1β3 GABAA receptors; read-out: efficacy, % of control current (GABA EC3-5 = 100%), α1β3, 30 µM): 623 ± 114%
- EC50 (α1β3 GABAA receptors; α1β3, co-applied with GABA EC3-5, read-out: EC50): 3490 nM
- EC50 (α1β3N41R GABAA receptors; co-applied with GABA EC3-5, read-out: EC50 values for the mutated receptors): 2470 nM

Structure (SMILES): NCCCC(=O)O [GABA, γ-Aminobutyric acid]
- GABA current amplitude (α1β1 GABAA receptors; 100 nM GABA): 0.1±0.0 µA
- GABA current amplitude (α1β1 GABAA receptors; 1 µM GABA): 0.7±0.1 µA
- GABA current amplitude (α1β1 GABAA receptors; 10 μM GABA): 2.2±0.3 µA
- GABA current amplitude (α1β1 GABAA receptors; 100 µM GABA): 3.1±0.4 µA
- GABA current amplitude (α1β1 GABAA receptors; 1 mM GABA): 4.0±0.5 µA
- GABA Hill slope (nH) (α1β1 GABAA receptors; GABA dose-response curve): 0.6±0.3
- GABA current amplitude (α1β1R41N GABAA receptors; 100 nM GABA): 0.1±0.0 µA
- GABA current amplitude (α1β1R41N GABAA receptors; 1 µM GABA): 0.7±0.1 µA
- GABA current amplitude (α1β1R41N GABAA receptors; 10 μM GABA): 2.3±0.5 µA
- GABA current amplitude (α1β1R41N GABAA receptors; 100 µM GABA): 2.9±0.7 µA
- GABA current amplitude (α1β1R41N GABAA receptors; 1 mM GABA): 2.8±0.8 µA
- GABA Hill slope (nH) (α1β1R41N GABAA receptors; GABA dose-response curve): 1.2±0.1 and ~ 1.2
- GABA current amplitude (α1β2 GABAA receptors; α1β2, 100 nM GABA): 0.0±0.0 µA
- GABA current amplitude (α1β2 GABAA receptors; α1β2, 1 µM GABA): 0.5±0.2 µA
- GABA current amplitude (α1β2 GABAA receptors; α1β2, 10 μM GABA): 1.9±0.5 µA
- GABA current amplitude (α1β2 GABAA receptors; α1β2, 100 µM GABA): 2.6±0.6 µA
- GABA current amplitude (α1β2 GABAA receptors; α1β2, 1 mM GABA): 3.1±0.7 µA
- GABA Hill slope (nH) (α1β2 GABAA receptors; α1β2, GABA dose-response curve): 0.7±0.1
- GABA current amplitude (α1β3 GABAA receptors; α1β3, 100 nM GABA): 0.0±0.0 µA
- GABA current amplitude (α1β3 GABAA receptors; α1β3, 1 µM GABA): 0.5±0.1 µA
- GABA current amplitude (α1β3 GABAA receptors; α1β3, 10 μM GABA): 1.9±0.3 µA
- GABA current amplitude (α1β3 GABAA receptors; α1β3, 100 µM GABA): 2.7±0.4 µA
- GABA current amplitude (α1β3 GABAA receptors; α1β3, 1 mM GABA): 3.5±0.5 µA
- GABA Hill slope (nH) (α1β3 GABAA receptors; α1β3, GABA dose-response curve): 0.7±0.0
- GABA current amplitude (α1β3N41R GABAA receptors; 100 nM GABA): 0.0±0.0 µA
- GABA current amplitude (α1β3N41R GABAA receptors; 1 µM GABA): 1.3±0.5 µA
- GABA current amplitude (α1β3N41R GABAA receptors; 10 μM GABA): 3.5±0.9 µA
- GABA current amplitude (α1β3N41R GABAA receptors; 100 µM GABA): 4.0±1.1 µA
- GABA current amplitude (α1β3N41R GABAA receptors; 1 mM GABA): 4.1±1.2 µA
- GABA Hill slope (nH) (α1β3N41R GABAA receptors; GABA dose-response curve): 1.2±0.1 and ~ 1.2
